For data set [1] the following is noted: after a bolus injection; cited from earlier work.
In data set [2] the test system is normal human gastric cells (NHGC). To be noted: for percent viable gastric cells, BR96-DOX plus chemoprotectant (FIGS. 3 and 4): with or without BSO pretreatment. The method, then:
Cytotoxicity was assessed in cultured normal human gastric cells (NHGC), using the WST colorometric assay for live cells. Cells were treated with approximately LD90 dose of BR96-DOX, immediately followed by NAC at the indicated concentrations.
(§1) A NHGC cell line and a human gastric carcinoma cell line (AGS) were obtained.

For another data set, the system named is bone marrow. The data set can be described thus: Bone marrow toxicity study after intra-carotid combination chemotherapy. The method, then: (§2) NAC biodistribution was determined with radiolabelled tracer (n=12). Blood and tissue GSH levels were measured with a colorometric kit 9 (n=19). For bone marrow toxicity studies, rats were treated with or without BSO (10 g/m^2 i.p. b.i.d.×3 days), followed by chemotherapy consisting of intra-carotid carboplatin (200 mg/m^2), melphalan (10 mg/m^2) and etoposide phosphate (100 mg/m^2) (n=61). The dose of NAC was 1200 mg/m^2 and STS was 8 gm/m^2. White blood cell and platelet counts were obtained prior to, at 6 days and 9-10 days after chemotherapy.

Data set [3] has as its system low-expressor and high-expressor subclones of the LX-1 SCLC cell line. The data set can be described thus: BSO cytoenhancement in LX-1 SCLC subclones. The class given is cell-based, human. The settings on record: low- and high-expressor LX-1 subclones.
The subject of data set [4] is human gastric carcinoma cell line (AGS). The data set can be described thus: Cytotoxicity dose response in gastric carcinoma cells. The settings on record: for cell survival, comparison of combinations (FIGS. 5 and 6): NAC+BSO+BR96-DOX versus BR96-DOX+BSO without NAC; for EC50: Homo sapiens, AGS. The method, then: as §1
The dose response curves for BR96-DOX and doxorubicin with or without the addition of buthionine sulfoximine (BSO) at a concentration of 100 μM were assessed.

The test system of the next data set is GSH. The data set can be described thus: Blood and tissue GSH levels, colorometric kit. The class given is in vivo, nude rats. The settings on record: BSO 10 g/m^2 i.p. b.i.d. x 3 days; even in brain and intracerebral tumor. The method, then:
as §2

Data set [5] can be described thus: NAC biodistribution with radiolabelled tracer. The data set is classed as in vivo, rat. The method, then: as §2
A further data set has as its system B.5 LX-1 SCLC cells. The data set is described as follows: WST colorometric live-cell assay, NAC chemoprotection against alkylating chemotherapy. The data set is classed as cell-based. The settings on record: Homo sapiens; approx. LD90 chemotherapy (melphalan 20 μM, carboplatin 200 μM, cisplatin 20 μM); NAC added immediately after; all three drugs; read-out: NAC concentration for half-maximal protection against cell death. The method, then:
Cytotoxicity was assessed in cultured B.5 LX-1 SCLC cells, using the WST colorometric assay for live cells. Cells were treated with approximately LD90 dose of chemotherapy (melphalan=20 μM, carboplatin=200 μM, cisplatin=20 μM). Immediately following chemotherapy, NAC chemoprotectant was added at the indicated concentration. NAC protected against cell death by all three chemotherapeutic drugs, with half-maximal protection found between 0.1 mg/ml NAC and 0.3 mg/ml NAC.

In brackets after ≈: the same amount, converted by molar mass. Entries after “also recorded” stand apart in the source; their conditions may differ. Like-named read-outs stand apart in the source and are kept apart here.

Consider `O=S([O-])([O-])=S.[Na+].[Na+]` [STS, sodium thiosulfate], for which the plasma half life entry in data set [1] was “about 17 minutes”. In data set [2] (NHGC), the “reduction of BR96-DOX cell kill, other chemoprotective agents” value (shortened to “reduction … other chemoprotective agents”) is “no significant effect”.
As to `CCCCS(=N)(=O)CCC(N)C(=O)O` (stereo not shown) [BSO, buthionine sulfoximine], in the data set with bone marrow (BSO pretreatment, intra-carotid carboplatin, melphalan, etoposide phosphate), the “bone marrow toxicity of combination chemotherapy” value was “enhanced the bone marrow toxicity”. For the same molecule, the “effect of BSO on cytotoxicity of BR96-DOX or doxorubicin in normal gastric cells” value in data set [2] (NHGC) was “did not increase toxicity; also recorded: did not enhance the cytotoxicity”. Further, the “effect of BSO on cytotoxicity of BR96-DOX or doxorubicin” value in data set [3] is on record as “did not enhance the cytotoxicity”. Besides, in data set [4], the “effect of BSO on cytotoxicity in carcinoma cells” value is on record as “enhanced cytotoxicity”; the “cell survival, comparison of combinations (FIGS. 5 and 6)” value is “least survival”. The “reduction of blood and tissue GSH levels” value in the data set on GSH was 50-65%.
Consider `CC(=O)N[C@@H](CS)C(=O)O` [NAC, N-acetylcysteine], for which, in the data set with bone marrow (day 6, NAC 1200 mg/m^2 aortic infusion before intra-carotid chemotherapy, no BSO, no NAC: 146±160, p<0.02), the granulocytes at nadir was 785±494. The platelets at nadir in the data set with bone marrow (day 6, NAC 1200 mg/m^2 aortic infusion before intra-carotid chemotherapy, no BSO, no NAC: 215±126, p<0.02) turned out to be 470±234. Further, in data set [5] (aortic infusion), the “systemic delivery of radiolabelled NAC” value was “increasing systemic delivery”. The “brain delivery of radiolabelled NAC” value in data set [5] (aortic infusion (retrograde left external carotid, left internal carotid occluded)) was “negligible levels”; in data set [5] (intraarterial, right carotid artery), “high delivery to the right cerebral hemisphere”. Besides, the EC50 in the data set with B.5 LX-1 SCLC cells was 100 to 300 µg/mL (≈ 613 to 1840 µM). For the same molecule, the “protection against BR96-DOX cytotoxicity in normal gastric cells” value in data set [2] (NHGC) is “protected the normal gastric cells; also recorded: at least partially protective; also recorded: protective independent of the presence of BSO”. Also, the “reduction of BR96-DOX cell kill” value in data set [2] (NHGC, experiment 1) is 25%; in data set [2] (NHGC, experiment 2), 95%; in data set [2] (NHGC, experiment 3), 55%. In addition, the “protective NAC concentration relative to that required against alkylating chemotherapeutics” value in data set [2] (NHGC/BR96-DOX vs B.5 LX-1/alkylators) amounted to 10 fold. In addition, the “percent viable gastric cells, BR96-DOX plus chemoprotectant (FIGS. 3 and 4)” value in data set [2] was “increased the percentage of viable gastric cells”. The “effect on BSO-enhanced BR96-DOX cytotoxicity” value in data set [4] is “did reverse the enhanced cytotoxicity”. Besides, the “effect on response to BR96-DOX” value in data set [4] (AGS cells not treated with BSO) was “did not alter the response”. Moreover, in data set [4], the “cell survival, comparison of combinations (FIGS. 5 and 6)” value was “greatest amount of cells survived”.
Take `CCOC(=O)CNC(=O)[C@H](CS)NC(=O)CC[C@H](N)C(=O)O` [GSH ethyl ester]: the “reduction … other chemoprotective agents” value in data set [2] (NHGC) is listed as 15-20%. The “percent viable gastric cells, BR96-DOX plus chemoprotectant (FIGS. 3 and 4)” value in data set [2] is on record as “second highest amount of viable gastric cells”.
Consider `CSCC[C@@H](N)C(=O)O` [d-Methionine, D-methionine], for which the “reduction … other chemoprotective agents” value in data set [2] (NHGC) is recorded as “no significant effect”.
Regarding `COc1cccc2c1C(=O)c1c(O)c3c(c(O)c1C2=O)C[C@@](O)(C(=O)CO)C[C@@H]3O[C@H]1C[C@H](N)[C@H](O)[C@H](C)O1` [doxorubicin], the EC50 is 0.1 µg/mL (≈ 0.184 µM) in data set [4] (read-out: half maximal cytotoxic dose (EC50), AGS cells, absence of BSO) and roughly 0.05 µg/mL (≈ 0.092 µM) in data set [4] (read-out: half maximal cytotoxic dose (EC50), AGS cells, pretreatment with BSO 100 μM).
